Legend:
[1] = tested on: Human neuroblastoma cell line (SK-N-AS); assay: Inhibition of SK-N-AS cell proliferation (CellTiter luminescent viability); format: cell-based; details: Table IK1, AKT inhibitor-based, 96 hours; for inhibition at 0.01 µM: 10 nM, read-out: Inhibition Rate at 10 nM (%); for inhibition at 0.5 µM: 500 nM, read-out: Inhibition Rate at 500 nM (%)
Experimental: The tumor cells used herein were cultured in a cell culture medium listed in table 3 at 37 °C in an incubator with 5% CO2. Prior to experimentation, all cell lines used were correctly identified by STR profiling, and tested negative for mycoplasma contamination using a mycoplasma detection kit through routine screenings.
The IC50 values of the compounds of the present disclosure (including the compounds in Table 1, Table 2, and Examples 1-468) were determined using the CellTiter-Meiluncell Luminescent Cell Viability Assay Kit from Dalian Meilun Biotech Co., Ltd. The detailed procedure is as follows: Tumor cells were seeded in 96-well cell culture plates at the densities specified in Table 4. On the following day, the test compounds of the present disclosure were subjected to serial dilution. The dilution can be performed according to one of the following two methods: • (1) The first dilution method: The test compounds of the present disclosure (including the compounds in Table 1, Table 2, and Examples 1-468) were subjected to 5-fold serial dilutions starting from a highest concentration of 2000 μM, resulting in a total of 9 concentrations from high to low (2000, 400, 80, 16, 3.2, 0.64, 0.128, 0.0256, 0.00512 μM). Subsequently, 0.5 μL of the test compound dilution was transferred into the 96-well plate containing the cells, with each well containing 100 μL of cell culture medium. […] Into the 96-well plate, the diluted test compounds and corresponding detection reagents were added, resulting in final test compound concentrations of 500 nM and 10 nM, respectively. The experimental procedure is described below using the diluted 2 μM test compound as an example.
0.5 μL of the aforementioned diluted compound of the present disclosure (including the compounds in Table 1, Table 2, and Examples 1-468) was added to the seeded cells in 100 μL of medium, yielding a final test compound concentration of 10 nM. After the cells were treated with the compounds of the present disclosure for a specified period, the cell viability assay reagent was added to the culture medium according to the kit's instructions to determine cell viability. […] All controls were treated using the same procedure as the compounds of the present disclosure. The growth inhibition curves for the compounds of the present disclosure were plotted using Prism GraphPad software, and the IC50 values were calculated therefrom.

[2] = tested on: AKT; assay: Western blot degradation of AKT; format: cell-based; details: hPBMC Cell; 24 hours
Experimental: Conventional Western blot assay was performed to evaluate the effects of the compounds of the present disclosure on the expression of target proteins in cells.
(1) Cell Seeding and Protein Harvesting: The selected cells were processed according to the cell seeding procedure and protein harvesting procedure in Table II-2.
(2) To the collected supernatant, 5×SDS sample loading buffer was added, followed by denaturation at 95 °C for 5 minutes. The denatured samples were then separated by SDS-PAGE electrophoresis on a polyacrylamide gel. Proteins were transferred to a nitrocellulose membrane (0.45 μm NC membrane), blocked with blocking buffer at room temperature for 1 hour, and subjected to antibody incubation and development procedures according to the antibody manufacturer's instructions (Cell Signaling Technology).
Half-Maximal Degradation Concentration value (the drug concentration required for degrading proteins by 50%, abbreviated as DC50) reads method: comparing the grayscale values of Western blot bands from drug-treated samples with those from blank DMSO-treated controls, and identifying the drug concentration range at which the grayscale value is half that of the DMSO-treated control bands.
DC50 values can be calculated using ImageJ software to measure grayscale values of Western blot bands from drug-treated samples. The concentration-response curve is fitted to estimate the drug concentration corresponding to half the grayscale value.
Target protein remaining (%) refers to the percentage of target protein remaining in cells after treatment with protein degrader compounds.
Calculation method for target protein remaining (%): Use ImageJ software to measure grayscale values of Western blot bands from drug (protein degrader)-treated samples. The grayscale value of drug-treated bands is divided by that of internal control protein bands, and the resulting quotient is normalized to obtain the relative percentage of remaining target protein after protein degrader treatment.
Target protein degradation rate (%)=1−target protein remaining (%).

[3] = molecular target: T1, human Cereblon WT GST-tagged protein (CRBN) (Homo sapiens, UniProt Q96SW2); assay: CRBN binding by HTRF (Cereblon binding kit)
T1 construct: purchased CISBIO 64BDCRBNPEH
Procedure, shortened: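 GST-tagged human Cereblon WT was incubated 3 h at room temperature with compound, thalidomide-Re tracer and Eu anti-GST antibody. Final compound concentrations were 10 to 0.00064 µM (7 points) or 2 and 0.5 µM. Inhibition rate was calculated from HTRF 665/620 nm ratios versus solvent and blank controls.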

T1 sequence (Q96SW2 whole entry): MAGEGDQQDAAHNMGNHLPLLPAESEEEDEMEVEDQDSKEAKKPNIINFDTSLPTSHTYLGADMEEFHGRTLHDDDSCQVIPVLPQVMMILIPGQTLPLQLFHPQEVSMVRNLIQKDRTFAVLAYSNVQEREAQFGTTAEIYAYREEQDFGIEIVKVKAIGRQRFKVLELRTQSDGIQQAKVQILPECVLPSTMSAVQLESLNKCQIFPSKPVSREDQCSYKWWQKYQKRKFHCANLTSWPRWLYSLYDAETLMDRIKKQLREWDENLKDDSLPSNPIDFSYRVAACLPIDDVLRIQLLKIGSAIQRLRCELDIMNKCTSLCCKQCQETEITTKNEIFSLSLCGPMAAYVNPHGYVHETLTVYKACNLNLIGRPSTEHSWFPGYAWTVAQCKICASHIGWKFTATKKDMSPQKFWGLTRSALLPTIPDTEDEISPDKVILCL

SMILES | Degradation of substrate protein AKT (substrate protein remaining %) [2] | also measured
Cn1ncc(Cl)c1-c1cc(C(=O)N[C@H](CNCc2ccc3c(c2)CN(N2CCC(=O)NC2=O)C3=O)Cc2ccc(F)c(F)c2)oc1Cl [GT-08574, (S)-5-chloro-4-(4-chloro-1-methyl-1H-pyrazol-5-yl)-N-(1-(3,4-difluorophenyl)-3-(((2-(2,4-dioxotetrahydropyrimidin-1(2H)-yl)-1-oxoisoindolin-5-yl)methyl)amino)propan-2-yl) furan-2-carboxamide] | A (0%≤substrate protein remaining %≤80%) | inhibition at 0.01 µM [1]: 5 to 10%; inhibition at 0.5 µM [1]: 20 to 30%
Cn1ncc(Cl)c1-c1cc(C(=O)N[C@@H](Cc2cccc(F)c2)CN2CCN(Cc3ccc4c(c3)CN(N3CCC(=O)NC3=O)C4=O)CC2)sc1Cl [GT-08576, (S)-5-chloro-4-(4-chloro-1-methyl-1H-pyrazol-5-yl)-N-(1-(4-((2-(2,4-dioxotetrahydropyrimidin-1(2H)-yl)-1-oxoisoindolin-5-yl)methyl)piperazin-1-yl)-3-(3-fluorophenyl)propan-2-yl)thiophene-2-carboxamide] | A (0%≤substrate protein remaining %≤80%) | inhibition at 0.01 µM [1]: 15 to 20%; inhibition at 0.5 µM [1]: 20 to 30%
Cn1ncc(Cl)c1-c1cc(C(=O)N[C@H](CNCc2ccc3c(c2)C(=O)N(N2CCC(=O)NC2=O)C3=O)Cc2cccc(F)c2)sc1Cl [GT-08577, (S)-5-chloro-4-(4-chloro-1-methyl-1H-pyrazol-5-yl)-N-(1-(((2-(2,4-dioxotetrahydropyrimidin-1(2H)-yl)-1,3-dioxoisoindolin-5-yl)methyl)amino)-3-(3-fluorophenyl)propan-2-yl)thiophene-2-carboxamide] | A (0%≤substrate protein remaining %≤80%) | –
Nc1ncccc1-c1nc2ccc(-c3ccccc3)nc2n1-c1ccc(C2(NCc3ccc4c(c3)C(=O)N(N3CCC(=O)NC3=O)C4=O)CCC2)cc1 [GT-08578, 5-(((1-(4-(2-(2-aminopyridin-3-yl)-5-phenyl-3H-imidazo[4,5-b]pyridin-3-yl)phenyl)cyclobutyl)amino)methyl)-2-(2,4-dioxotetrahydropyrimidin-1(2H)-yl)isoindoline-1,3-dione] | A (0%≤substrate protein remaining %≤80%) | –
Cn1ncc(Cl)c1-c1cc(C(=O)N[C@H](CNCc2ccc3c(c2)C(=O)N(N2CCC(=O)NC2=O)C3=O)Cc2ccc(F)c(F)c2)oc1Cl [GT-08579, (S)-5-chloro-4-(4-chloro-1-methyl-1H-pyrazol-5-yl)-N-(1-(3,4-difluorophenyl)-3-(((2-(2,4-dioxotetrahydropyrimidin-1(2H)-yl)-1,3-dioxoisoindolin-5-yl)methyl)amino)propan-2-yl) furan-2-carboxamide] | A (0%≤substrate protein remaining %≤80%) | –
Cn1ncc(Cl)c1-c1cc(C(=O)N[C@@H](Cc2ccc(F)c(F)c2)CN2CCN(Cc3ccc4c(c3)C(=O)N(N3CCC(=O)NC3=O)C4=O)CC2)oc1Cl [GT-08580, (S)-5-chloro-4-(4-chloro-1-methyl-1H-pyrazol-5-yl)-N-(1-(3,4-difluorophenyl)-3-(4-((2-(2,4-dioxotetrahydropyrimidin-1(2H)-yl)-1,3-dioxoisoindolin-5-yl)methyl)piperazin-1-yl)propan-2-yl) furan-2-carboxamide] | A (0%≤substrate protein remaining %≤80%) | –
Cn1ncc(Cl)c1-c1cc(C(=O)N[C@@H](Cc2cccc(F)c2)CN2CCN(Cc3ccc4c(c3)C(=O)N(N3CCC(=O)NC3=O)C4=O)CC2)sc1Cl [GT-08581, (S)-5-chloro-4-(4-chloro-1-methyl-1H-pyrazol-5-yl)-N-(1-(4-((2-(2,4-dioxotetrahydropyrimidin-1(2H)-yl)-1,3-dioxoisoindolin-5-yl)methyl)piperazin-1-yl)-3-(3-fluorophenyl)propan-2-yl)thiophene-2-carboxamide] | A (0%≤substrate protein remaining %≤80%) | –
Cn1ncc(Cl)c1-c1cc(C(=O)N[C@H](CNCC2CCN(c3ccc4c(c3)C(=O)N(N3CCC(=O)NC3=O)C4=O)CC2)Cc2cccc(F)c2)sc1Cl [GT-08582, (S)-5-chloro-4-(4-chloro-1-methyl-1H-pyrazol-5-yl)-N-(1-(((1-(2-(2,4-dioxotetrahydropyrimidin-1(2H)-yl)-1,3-dioxoisoindolin-5-yl)piperidin-4-yl)methyl)amino)-3-(3-fluorophenyl)propan-2-yl)thiophene-2-carboxamide] | A (0%≤substrate protein remaining %≤80%) | –
Nc1ncccc1-c1nc2ccc(-c3ccccc3)nc2n1-c1ccc(C2(NCC3CCN(c4ccc5c(c4)C(=O)N(N4CCC(=O)NC4=O)C5=O)CC3)CCC2)cc1 [GT-08583, 5-(4-(((1-(4-(2-(2-aminopyridin-3-yl)-5-phenyl-3H-imidazo[4,5-b]pyridin-3-yl)phenyl)cyclobutyl)amino)methyl)piperidin-1-yl)-2-(2,4-dioxotetrahydropyrimidin-1(2H)-yl)isoindoline-1,3-dione] | A (0%≤substrate protein remaining %≤80%) | –
Cn1ncc(Cl)c1-c1cc(C(=O)N[C@H](CNCC2CCN(c3ccc4c(c3)C(=O)N(N3CCC(=O)NC3=O)C4=O)CC2)Cc2ccc(F)c(F)c2)oc1Cl [GT-08584, (S)-5-chloro-4-(4-chloro-1-methyl-1H-pyrazol-5-yl)-N-(1-(3,4-difluorophenyl)-3-(((1-(2-(2,4-dioxotetrahydropyrimidin-1(2H)-yl)-1,3-dioxoisoindolin-5-yl)piperidin-4-yl)methyl)amino)propan-2-yl) furan-2-carboxamide] | A (0%≤substrate protein remaining %≤80%) | inhibition at 0.5 µM ([3]; 0.5 μM, read-out: Inhibition Rate at 0.5 μM (%)): 10 to 20%; inhibition at 2 µM ([3]; 2 μM, read-out: Inhibition Rate at 2 μM (%)): 53 to 60%
Cn1ncc(Cl)c1-c1cc(C(=O)N[C@@H](Cc2cccc(F)c2)CN2CCN(CC3CCN(c4ccc5c(c4)C(=O)N(N4CCC(=O)NC4=O)C5=O)CC3)CC2)sc1Cl [GT-08586, (S)-5-chloro-4-(4-chloro-1-methyl-1H-pyrazol-5-yl)-N-(1-(4-((1-(2-(2,4-dioxotetrahydropyrimidin-1(2H)-yl)-1,3-dioxoisoindolin-5-yl)piperidin-4-yl)methyl)piperazin-1-yl)-3-(3-fluorophenyl)propan-2-yl)thiophene-2-carboxamide] | A (0%≤substrate protein remaining %≤80%) | –
